Biological target: human MER (528-end) (Homo sapiens (Human), UniProt Q12866)
Test: HTRF Kinase Activity Biochemical Assay (KinEASE-TK)
Settings: 10 uM ATP
Procedure, shortened: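 Recombinant human MER (528-end) phosphorylated biotin-TK peptide substrate, 1 h at room temperature. Reaction stopped with detection buffer containing 0.375 nM Eu3+-cryptate anti-TK antibody and 0.062 uM streptavidin-XL665, 1 h further. Activity taken as HTRF ratio 665/620 nm ×10,000, 340 nm excitation.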

Sequence of human MER (528-end) (Q12866 528-999 limits assumed): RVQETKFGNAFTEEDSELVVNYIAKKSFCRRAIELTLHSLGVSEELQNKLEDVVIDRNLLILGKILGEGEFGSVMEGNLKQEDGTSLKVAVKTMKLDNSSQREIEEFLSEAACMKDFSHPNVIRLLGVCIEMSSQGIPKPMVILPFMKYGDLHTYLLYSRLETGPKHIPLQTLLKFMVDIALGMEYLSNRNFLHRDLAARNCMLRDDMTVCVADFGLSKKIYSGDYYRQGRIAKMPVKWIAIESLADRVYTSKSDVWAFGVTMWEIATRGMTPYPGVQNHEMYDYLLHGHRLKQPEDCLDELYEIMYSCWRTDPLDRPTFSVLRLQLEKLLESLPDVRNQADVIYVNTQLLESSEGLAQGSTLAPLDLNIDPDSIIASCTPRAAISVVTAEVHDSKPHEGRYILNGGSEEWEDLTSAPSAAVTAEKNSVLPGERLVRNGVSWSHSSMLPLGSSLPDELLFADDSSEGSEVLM

Row | IC50 | SMILES
1 | 100 to 1000 nM | Cn1cc(-c2cnc(N)c(C(=O)N[C@@H]3CCN(Cc4ccc(F)c(-c5cccc(CO)c5)c4)C3)c2)cn1 [Example 250, (R)-2-amino-N-(1-((6-fluoro-3′-(hydroxymethyl)-[1,1′-biphenyl]-3-yl)methyl)pyrrolidin-3-yl)-5-(1-methyl-1H-pyrazol-4-yl)nicotinamide]
2 | 10 to 100 nM | Cn1cc(-c2cnc(N)c(C(=O)N[C@@H]3CCN(C(=O)Nc4cccc(-c5cccc(CN)c5)c4)C3)c2)cn1 [Example 254, (R)-2-amino-N-(1-((3′-(aminomethyl)-[1,1′-biphenyl]-3-yl)carbamoyl)pyrrolidin-3-yl)-5-(1-methyl-1H-pyrazol-4-yl)nicotinamide]
3 | 100 to 1000 nM | Cn1cc(-c2cnc(N)c(C(=O)N[C@@H]3CCN(C(=O)Nc4cccc(-c5ccc(CN)cc5)c4)C3)c2)cn1 [Example 255, (R)-2-amino-N-(1-((4′-(aminomethyl)-[1,1′-biphenyl]-3-yl)carbamoyl)pyrrolidin-3-yl)-5-(1-methyl-1H-pyrazol-4-yl)nicotinamide]
4 | 100 to 1000 nM | Nc1ncc(-c2ccc(CO)cc2)cc1C(=O)N[C@@H]1CCN(C(=O)Nc2cccc(-c3ccccc3)c2)C1 [Example 256, (R)—N-(1-([1,1′-biphenyl]-3-ylcarbamoyl)pyrrolidin-3-yl)-2-amino-5-(4-(hydroxymethyl)phenyl)nicotinamide]
5 | 100 to 1000 nM | Cn1cc(-c2cnc(N)c(C(=O)N[C@@H]3CCN(C(=O)Nc4cccc(-c5cccc(N)c5)c4)C3)c2)cn1 [Example 257, (R)-2-amino-N-(1-((3′-amino-[1,1′-biphenyl]-3-yl)carbamoyl)pyrrolidin-3-yl)-5-(1-methyl-1H-pyrazol-4-yl)nicotinamide]
6 | 100 to 1000 nM | Cn1cc(-c2cnc(N)c(C(=O)N[C@@H]3CCN(C(=O)Nc4cccc(-c5ccc(N)cc5)c4)C3)c2)cn1 [Example 258, (R)-2-amino-N-(1-((4′-amino-[1,1′-biphenyl]-3-yl)carbamoyl)pyrrolidin-3-yl)-5-(1-methyl-1H-pyrazol-4-yl)nicotinamide]
7 | 100 to 1000 nM | Cn1cc(-c2cnc(N)c(C(=O)N[C@@H]3CCN(C(=O)Nc4cccc(-c5ccc(CO)cc5)c4)C3)c2)cn1 [Example 259, (R)-2-amino-N-(1-((4′-(hydroxymethyl)-[1,1′-biphenyl]-3-yl)carbamoyl)pyrrolidin-3-yl)-5-(1-methyl-1H-pyrazol-4-yl)nicotinamide]
8 | > 1000 nM | Cn1cc(-c2cnc(N)c(C(=O)N[C@@H]3CCN(C(=O)Nc4cccc(-c5cnn(C6CCNCC6)c5)c4)C3)c2)cn1 [Example 260, (R)-2-amino-5-(1-methyl-1H-pyrazol-4-yl)-N-(1-((3-(1-(piperidin-4-yl)-1H-pyrazol-4-yl)phenyl)carbamoyl)pyrrolidin-3-yl)nicotinamide]
9 | 100 to 1000 nM | Cn1cc(-c2cnc(N)c(C(=O)N[C@@H]3CCN(C(=O)Nc4cccc(-c5ccc(N6CCNCC6)nc5)c4)C3)c2)cn1 [Example 261, (R)-2-amino-5-(1-methyl-1H-pyrazol-4-yl)-N-(1-((3-(6-(piperazin-1-yl)pyridin-3-yl)phenyl)carbamoyl)pyrrolidin-3-yl)nicotinamide]
10 | 100 to 1000 nM | CNc1ccc(-c2cccc(NC(=O)N3CC[C@@H](NC(=O)c4cc(-c5cnn(C)c5)cnc4N)C3)c2)cc1 [Example 262, (R)-2-amino-5-(1-methyl-1H-pyrazol-4-yl)-N-(1-((4′-(methylamino)-[1,1′-biphenyl]-3-yl)carbamoyl)pyrrolidin-3-yl)nicotinamide]
11 | 100 to 1000 nM | Cn1cc(-c2cnc(N)c(C(=O)N[C@@H]3CCN(C(=O)Nc4cccc(-c5cccc(CO)c5)c4)C3)c2)cn1 [Example 264, (R)-2-amino-N-(1-((3′-(hydroxymethyl)-[1,1′-biphenyl]-3-yl)carbamoyl)pyrrolidin-3-yl)-5-(1-methyl-1H-pyrazol-4-yl)nicotinamide]
12 | 10 to 100 nM | CN(C)Cc1cccc(-c2cccc(NC(=O)N3CC[C@@H](NC(=O)c4cc(-c5cnn(C)c5)cnc4N)C3)c2)c1 [Example 265, (R)-2-amino-N-(1-((3′-((dimethylamino)methyl)-[1,1′-biphenyl]-3-yl)carbamoyl)pyrrolidin-3-yl)-5-(1-methyl-1H-pyrazol-4-yl)nicotinamide]
13 | > 1000 nM | CN1CCN(Cc2cccc(-c3cccc(NC(=O)N4CC[C@@H](NC(=O)c5cc(-c6cnn(C)c6)cnc5N)C4)c3)c2)CC1 [Example 267, (R)-2-amino-5-(1-methyl-1H-pyrazol-4-yl)-N-(1-((3′-((4-methylpiperazin-1-yl)methyl)-[1,1′-biphenyl]-3-yl)carbamoyl)pyrrolidin-3-yl)nicotinamide]
14 | 10 to 100 nM | CN1CCN(Cc2ccc(-c3cccc(NC(=O)N4CC[C@@H](NC(=O)c5cc(-c6cnn(C)c6)cnc5N)C4)c3)cc2)CC1 [Example 268, (R)-2-amino-5-(1-methyl-1H-pyrazol-4-yl)-N-(1-((4′-((4-methylpiperazin-1-yl)methyl)-[1,1′-biphenyl]-3-yl)carbamoyl)pyrrolidin-3-yl)nicotinamide]
15 | > 1000 nM | Cn1cc(-c2cnc(N)c(C(=O)N[C@@H]3CCN(C(=O)Nc4ccc(-c5ccc(CN)cc5)cc4)C3)c2)cn1 [Example 270, (R)-2-amino-N-(1-((4′-(aminomethyl)-[1,1′-biphenyl]-4-yl)carbamoyl)pyrrolidin-3-yl)-5-(1-methyl-1H-pyrazol-4-yl)nicotinamide]
16 | 100 to 1000 nM | Cn1cc(-c2cnc(N)c(C(=O)N[C@@H]3CCN(C(=O)Nc4ccc(-c5ccccc5)cc4)C3)c2)cn1 [Example 271, (R)—N -(1-([1,1′-biphenyl]-4-ylcarbamoyl)pyrrolidin-3-yl)-2-amino-5-(1-methyl-1H-pyrazol-4-yl)nicotinamide]
17 | 10 to 100 nM | CN1CCN(Cc2ccc(-c3cccc(NC(=S)N4CC[C@@H](NC(=O)c5cc(-c6cnn(C)c6)cnc5N)C4)c3)cc2)CC1 [Example 274, (R)-2-amino-5-(1-methyl-1H-pyrazol-4-yl)-N-(1-((4′-((4-methylpiperazin-1-yl)methyl)-[1,1′-biphenyl]-3-yl)carbamothioyl)pyrrolidin-3-yl)nicotinamide]
18 | > 1000 nM | Cn1cc(-c2cnc(N)c(C(=O)N[C@@H]3CCN(C(=O)Oc4cccc(-c5ccc(C(=O)O)cc5)c4)C3)c2)cn1 [Example 278, (R)-3′-((3-(2-amino-5-(1-methyl-1H-pyrazol-4-yl)nicotinamido)pyrrolidine-1-carbonyl)oxy)-[1,1′-biphenyl]-4-carboxylic acid]
19 | 100 to 1000 nM | Cn1cc(-c2cnc(N)c(C(=O)N[C@@H]3CCN(C(=O)Oc4cccc(-c5ccc(O)cc5)c4)C3)c2)cn1 [Example 279, 4′-hydroxy-[1,1′-biphenyl]-3-yl (R)-3-(2-amino-5-(1-methyl-1H-pyrazol-4-yl)nicotinamido)pyrrolidine-1-carboxylate]
20 | 100 to 1000 nM | Cn1cc(-c2cnc(N)c(C(=O)N[C@@H]3CCN(C(=O)Oc4cccc(-c5ccc(CO)cc5)c4)C3)c2)cn1 [Example 280, 4′-(hydroxymethyl)-[1,1′-biphenyl]-3-yl (R)-3-(2-amino-5-(1-methyl-1H-pyrazol-4-yl)nicotinamido)pyrrolidine-1-carboxylate]
21 | > 1000 nM | Cn1cc(-c2cnc(N)c(C(=O)N[C@@H]3CCN(C(=O)Oc4cccc(-c5cnn(CCO)c5)c4)C3)c2)cn1 [Example 284, 3-(1-(2-hydroxyethyl)-1H-pyrazol-4-yl)phenyl (R)-3-(2-amino-5-(1-methyl-1H-pyrazol-4-yl)nicotinamido)pyrrolidine-1-carboxylate]
22 | 10 to 100 nM | Cn1cc(-c2cnc(N)c(C(=O)N[C@@H]3CCN(C(=O)Oc4cccc(-c5cncc6ccccc56)c4)C3)c2)cn1 [Example 289, 3-(isoquinolin-4-yl)phenyl (R)-3-(2-amino-5-(1-methyl-1H-pyrazol-4-yl)nicotinamido)pyrrolidine-1-carboxylate]
23 | 100 to 1000 nM | Cn1cc(-c2cnc(N)c(C(=O)N[C@@H]3CCN(C(=O)Oc4ccc5ccc(OCC6CCNCC6)cc5c4)C3)c2)cn1 [Example 298]
24 | 100 to 1000 nM | Cn1cc(-c2cnc(N)c(C(=O)N[C@@H]3CCN(C(=O)Oc4ccc5ccc(OCCO)cc5c4)C3)c2)cn1 [Example 299, 7-(2-hydroxyethoxy)naphthalen-2-yl (R)-3-(2-amino-5-(1-methyl-1H-pyrazol-4-yl)nicotinamido)pyrrolidine-1-carboxylate]

Row | SMILES | IC50
25 | CN1CCN(Cc2ccc(-c3cccc(OC(=O)N4CC[C@@H](NC(=O)c5cc(-c6cnn(C)c6)cnc5N)C4)c3)cc2)CC1 [Example 275, 4′-((4-methylpiperazin-1-yl)methyl)-[1,1′-biphenyl]-3-yl (R)-3-(2-amino-5-(1-methyl-1H-pyrazol-4-yl)nicotinamido)pyrrolidine-1-carboxylate] | 100 to 1000 nM
26 | Cn1cc(-c2cnc(N)c(C(=O)N[C@@H]3CCN(C(=O)Oc4cccc(-c5cnn(CCN6CCOCC6)c5)c4)C3)c2)cn1 [Example 287, 3-(1-(2-morpholinoethyl)-1H-pyrazol-4-yl)phenyl (R)-3-(2-amino-5-(1-methyl-1H-pyrazol-4-yl)nicotinamido)pyrrolidine-1-carboxylate] | > 1000 nM
27 | CN1CCN(CCn2cc(-c3cccc(OC(=O)N4CC[C@@H](NC(=O)c5cc(-c6cnn(C)c6)cnc5N)C4)c3)cn2)CC1 [Example 288, 3-(1-(2-(4-methylpiperazin-1-yl)ethyl)-1H-pyrazol-4-yl)phenyl (R)-3-(2-amino-5-(1-methyl-1H-pyrazol-4-yl)nicotinamido)pyrrolidine-1-carboxylate] | > 1000 nM
28 | CN1CCN(c2cc(-c3cccc(OC(=O)N4CC[C@@H](NC(=O)c5cc(-c6cnn(C)c6)cnc5N)C4)c3)ccn2)CC1 [Example 290, 3-(2-(4-methylpiperazin-1-yl)pyridin-4-yl)phenyl (R)-3-(2-amino-5-(1-methyl-1H-pyrazol-4-yl)nicotinamido)pyrrolidine-1-carboxylate] | > 1000 nM
29 | CN1CCN(Cc2ccc(-c3ccc4cc(OC(=O)N5CC[C@@H](NC(=O)c6cc(-c7cnn(C)c7)cnc6N)C5)ccc4c3)cc2)CC1 [Example 293, 6-(4-((4-methylpiperazin-1-yl)methyl)phenyl)naphthalen-2-yl (R)-3-(2-amino-5-(1-methyl-1H-pyrazol-4-yl)nicotinamido)pyrrolidine-1-carboxylate] | 100 to 1000 nM

— US12378224B2 (Dong-A Socio Holdings Co., Ltd., priority 2016, dated 2025)
